{
  "source": "patent US7012085B2",
  "about": "“1,3 disubstituted pyrrolidines as α-2-adrenoceptor antagonists” (Novartis AG, priority 2000, dated 2006)",
  "key": {"[1]": {"tested_on": "amphetamine induced locomotion", "test": "amphetamine induced locomotion in rats", "type": "in vivo", "method": "The compound or the solvent are administered at t=−30 min."}, "[2]": {"tested_on": "loxapine-induced catalepsy", "test": "loxapine-induced catalepsy in rats", "type": "in vivo", "details": "0.3-3 mg/kg s.c.", "method": "Kalkman H. O. et al., Br. J. Pharmacol. 124:1550-1556 (1998)] at doses of about 0.3 to about […] s.c."}},
  "data": [
    {"molecule": "COc1ccccc1[C@H]1CCN(Cc2ccc3c(c2)OCCO3)C1", "note": "[(R)-1-(2,3,-dihydro-benzo-[1,4]dioxin-6-ylmethyl)-3-(2-methoxyphenyl)pyrrolidine]", "values": [
      {"measurement": "reduction of locomotion", "setting": "[1]; rats, 1, 3 and 10 mg/kg s.c.", "value": "dose-dependently reduce locomotion"},
      {"measurement": "inhibition of catalepsy", "setting": "[2]", "value": "long lasting, dose-dependent inhibition of catalepsy"}
    ]},
    {"molecule": "COc1ccccc1[C@H]1CCN(Cc2ccc(=O)n(C(C)C)c2)C1", "note": "[(R)-1-isopropyl-5-[3-(2-methoxyphenyl)pyrrolidin-1-ylmethyl]-1H-pyridin-2-one]", "values": [
      {"measurement": "reduction of locomotion", "setting": "[1]; rats, 0.1, 0.3 and 1 mg/kg s.c.", "value": "dose-dependently reduce locomotion"},
      {"measurement": "inhibition of catalepsy", "setting": "[2]", "value": "long lasting, dose-dependent inhibition of catalepsy"}
    ]}
  ]
}
